# Paper PMC5602130, “Food and Sex-Related Impacts on the Pharmacokinetics of a Single-Dose of Ginsenoside Compound K in Healthy Subjects” (Frontiers in Pharmacology, 2017)
# Like-named read-outs stand apart in the source and are kept apart here. Marks after values point to notes of the source that are not given here.
# Assays:
# [1] = Food-effect two-period crossover trial: plasma pharmacokinetics after a single 200 mg oral dose of Ginsenoside CK Tablets; assay type: in vivo, human; conditions: for AUC(0-inf) / AUC(0-t) / Tmax / Cmax / half-life / MRT inf / MRT last: human, plasma, po, 200 mg; for AUC(0-inf) / AUC(0-t) / Tmax / Cmax / half-life / MRT inf / MRT last / V/F: single oral 200 mg CK; for Tmax: median (range); for Cmax: read-out: Cmax; for half-life: read-out: t1/2 (converted)
# Protocol: The food-effect trial was an open-label, randomized, two-period, two-treatment crossover trial, carried out from 15 January to 31 March 2015. Subjects (n = 24) were admitted to the clinical facility (Center of Clinical Pharmacology, the Third Xiangya Hospital, Central South University, Changsha, China) and randomized to receive a single 200 mg oral dose of Ginsenoside CK Tablets (4 × 50 mg tablets) either after a 10 h-fasting period or within 30 min after beginning the consumption of a recommended high-fat, high calorie breakfast (150 calories of protein, 250 calories of carbohydrates, 500 to 600 calories of fat; total calories approximately 800–1,000). Tablets were administered with 250 mL of water, to each subject, in each treatment period. Drinking was prohibited for 2 h before and after medication. Apart from this, the amount and time of drinking were not strictly controlled. Subjects had unified, standard meals 4 and 10 h after drug administration. The alternate treatment was conducted after a 14-day washout period.
# Serial blood samples (5 mL) for PK assessment were collected from an indwelling catheter or by direct venipuncture prior to the administration (t = 0) and 0.25, 0.5, 1, 1.5, 2, 2.5, 3, 3.5, 4, 5, 6, 8, 12, 24, 36, 48, 72, and 96 h after the administration of ginsenoside CK. We inferred that these sampling times were sufficient for this trial, based on international guidelines (FDA, [2003]; CFDA, [2005]) and our previous results, since the sampling time is longer than at least three terminal half-lives of the drug. Additionally, the mean plasma concentrations of both CK and 20(S)-PPD at 96 h were considerably <1/20 of their Cmax even when the single oral dose at 800 mg (unpublished). Plasma was separated in blood collection tubes by centrifugation (3,000 rpm, 10 min) at 4°C within 1 h after sampling, transferred to labeled storage tubes and stored at −70°C pending workup and analysis.
# Descriptive statistics of PK parameters were calculated using established non-compartmental methods, utilizing the WinNonLin version 6.1 software (Pharsight Corporation, USA). The PK parameters determined for each participant included apparent terminal half-life (t1/2), maximum plasma concentration (Cmax), time to Cmax (tmax), area under the plasma concentration-time curve from the time of administration up to the last time point with a measurable concentration post-dose (AUClast), AUC extrapolated to infinity (AUCinf), apparent volume of distribution (V/F), apparent plasma clearance (CL/F) after extravascular administration, mean residence time (MRTlast and MRTinf), and the cumulative excretion rate from urine. The t1/2 was estimated as (ln2)/K, where K represented the slope of the terminal phase of plasma concentration-time profile and was assessed with a weighting factor of 1, using least squares (log-linear regression of at least three data points). The Cmax and tmax were obtained from experimental observations. The values of AUC were calculated using conventional trapezoidal and log-trapezoidal methods and the extrapolated area (Rowland and Tozer, [1995]). CL/F and V/F were calculated as dose/AUCinf and (CL/F)/K, respectively. MRT was calculated as MRT = AUMC/AUC, where AUMC is the area under the first moment curve. The cumulative excretion rate was calculated as the amount of unchanged drug over a time interval in the urine divided by dose, and was expressed as a percentage.
# All samples were detected using a LC-MS/MS (API 4000, ABI Company, USA) method, validated at the Institute of Clinical Pharmacology, Central South University (Changsha, China). Concentrations of CK and 20(S)-PPD were measured using a triple quadrupole tandem mass spectrometer in multiple reaction monitoring (MRM) mode, via a positive electrospray ionization source at m/z 621.4→ 160.8 for the CK and m/z 461.5→425.3 for 20(S)-PPD, with a dwell time of 200 ms. […]
# [2] = set-up: method as in unpublished; conditions: single oral dose at 800 mg; ref unpublished; cited from earlier work
# [3] = geometric mean ratio FO vs. HF, n = 24
smiles,measurement,setting,value
"CC(C)=CCC[C@](C)(O)C1CC[C@]2(C)C1[C@H](O)CC1[C@@]3(C)CC[C@H](O)C(C)(C)C3CC[C@]12C (stereo partly drawn) [20(S)-PPD, 20(S)-protopanaxadiol]",lgAUClast GMR (90%CI),"[1]; FO vs. HF (Female), n = 12",1.83 (1.27–2.64)
same,lgCmax GMR (90%CI),"[1]; FO vs. HF (Female), n = 12",1.98 (1.47–2.66)
same,lgAUClast GMR (90%CI),"[1]; FO vs. HF (Male), n = 12",1.08 (0.69–1.70)
same,lgCmax GMR (90%CI),"[1]; FO vs. HF (Male), n = 12",1.12 (0.74–1.70)
same,lgAUClast GMR (90%CI),"[1]; M vs. F (FO), n = 12",0.34 (0.15–0.75)
same,lgCmax GMR (90%CI),"[1]; M vs. F (FO), n = 12",0.48 (0.23–0.99)
same,lgAUClast GMR (90%CI),"[1]; M vs. F (HF), n = 12",0.57 (0.23–1.41)
same,lgCmax GMR (90%CI),"[1]; M vs. F (HF), n = 12",0.84 (0.38–1.84)
same,AUC(0-inf),"[1]; both sexes, FO, all subjects",228 ± 96.1 ng·h/mL
same,AUC(0-t),"[1]; both sexes, FO, all subjects",161 ± 114 ng·h/mL
same,AUC(0-inf),"[1]; both sexes, HF, all subjects",163 ± 95.4 ng·h/mL
same,AUC(0-t),"[1]; both sexes, HF, all subjects",116 ± 97.1 ng·h/mL
same,Tmax,"[1]; female, FO",26 h
same,Tmax,"[1]; female, HF",26 h
same,Cmax,"[1]; female, FO, female",6.4 ± 2.7 ng/mL
same,half-life,"[1]; female, FO, female",19.9 ± 5.5 h
same,Cmax,"[1]; female, HF, female",3.5 ± 2.1 ng/mL
same,half-life,"[1]; female, HF, female",21.2 ± 7.6 h
same,MRT inf,"[1]; female, FO",40.7 ± 7.5 h
same,MRT last,"[1]; female, FO",36.3 ± 6.8 h
same,MRT inf,"[1]; female, HF",46.7 ± 8.6 h
same,MRT last,"[1]; female, HF",37.5 ± 5.8 h
same,AUC(0-inf),"[1]; female, FO",225 ± 86.4 ng·h/mL
same,AUC(0-t),"[1]; female, FO",203 ± 88.8 ng·h/mL
same,AUC(0-inf),"[1]; female, HF",154 ± 99.5 ng·h/mL
same,AUC(0-t),"[1]; female, HF",132 ± 97.4 ng·h/mL
same,lgAUClast GMR (90%CI),[1]; [3],1.41 (1.05–1.88)
same,lgCmax GMR (90%CI),[1]; [3],1.49 (1.15–1.93)
same,Tmax,"[1]; FO, all subjects",24.5 h
same,Tmax,"[1]; HF, all subjects",26 h
same,half-life,"[1]; FO (fasting overnight), all subjects",19.3 ± 6 h
same,Cmax,"[1]; FO, all subjects",5.7 ± 3.8 ng/mL
same,half-life,"[1]; HF (high-fat meal), all subjects",21.2 ± 9.8 h
same,Cmax,"[1]; HF, all subjects",3.7 ± 3 ng/mL
same,MRT inf,"[1]; FO, all subjects",38.5 ± 9.7 h
same,MRT last,"[1]; FO, all subjects",31.7 ± 8.4 h
same,MRT inf,"[1]; HF, all subjects",45.1 ± 9.5 h
same,MRT last,"[1]; HF, all subjects",33.8 ± 6.9 h
same,Tmax,"[1]; male, FO",23 h
same,Tmax,"[1]; male, HF",26 h
same,Cmax,"[1]; male, FO, male",4.9 ± 4.7 ng/mL
same,half-life,"[1]; male, FO, male",18.2 ± 7.1 h
same,Cmax,"[1]; male, HF, male",3.9 ± 3.8 ng/mL
same,half-life,"[1]; male, HF, male",21.2 ± 13.7 h
same,MRT inf,"[1]; male, FO",34.5 ± 12.5 h
same,MRT last,"[1]; male, FO",27 ± 7.4 h
same,MRT inf,"[1]; male, HF",42.2 ± 11.1 h
same,MRT last,"[1]; male, HF",30.2 ± 5.9 h
same,AUC(0-inf),"[1]; male, FO",234 ± 121 ng·h/mL
same,AUC(0-t),"[1]; male, FO",120 ± 124 ng·h/mL
same,AUC(0-inf),"[1]; male, HF",178 ± 94.2 ng·h/mL
same,AUC(0-t),"[1]; male, HF",100 ± 98.5 ng·h/mL
same,V/F,"[1]; FO, all subjects","30,348 ± 22,300^a L"
same,V/F,"[1]; FO, female","33,100 ± 27,003^c L"
same,V/F,"[1]; FO, male","25,304 ± 9,268^b L"
same,V/F,"[1]; HF, all subjects","61,539 ± 64,303^a L"
same,V/F,"[1]; HF, female","64,980 ± 64,481^c L"
same,V/F,"[1]; HF, male","55,230 ± 69,586^b L"
same,Mean plasma concentration at 96 h as fraction of Cmax,[2],< 1/20
